Data reported in ChEMBL document CHEMBL1201862, “PubChem BioAssay data set” (2004).
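Cells were grown in 96-well plates and exposed to each compound for 48 hours at five concentrations; endpoints were interpolated linearly between bracketing concentrations, or set to the highest concentration if not reached. Abbreviation: GI50, concentration required for 50% inhibition of growth.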 Calls of active or inactive are those of the source. Rule as the data show it: active = GI50 up to about 1.1 µM and inactive = higher.

Assays:
Assay in all cases: DTP human tumour cell line panel, 48 h
A498 = test system: A498
ACHN = test system: ACHN
CCRF-CEM = test system: CCRF-CEM
COLO 205 = test system: COLO 205
HCT-116 = test system: HCT-116
HOP-92 = test system: HOP-92
IGROV-1 = test system: IGROV-1
KM12 = test system: KM12
LOX IMVI = test system: LOX IMVI
MOLT-4 = test system: MOLT-4
NCI-H23 = test system: NCI-H23
NCI-H460 = test system: NCI-H460
PC-3 = test system: PC-3
RXF 393 = test system: RXF 393
SF-539 = test system: SF-539
SNB-75 = test system: SNB-75
SW-620 = test system: SW-620
TK-10 = test system: TK-10
U-251 = test system: U-251
UACC-257 = test system: UACC-257

Measured: GI50

O=C(O)c1nc2ccccc2nc1Nc1ccc(F)cc1
inactive: A498 40 µM | ACHN 26.9 µM | CCRF-CEM 29.8 µM | COLO 205 29.5 µM | HCT-116 30.8 µM | HOP-92 27.1 µM | IGROV-1 37.4 µM | KM12 41.6 µM | LOX IMVI 34.1 µM | MOLT-4 28.3 µM | NCI-H23 34 µM | NCI-H460 34 µM | PC-3 27.9 µM | RXF 393 14.5 µM | SF-539 23.5 µM | SNB-75 24.8 µM | SW-620 38.5 µM | TK-10 34.5 µM | U-251 37.7 µM | UACC-257 29.6 µM

CC(=O)C(=[N+]=[N-])C(=O)OC(C)(C)C#N
inactive: A498 > 10 µM | ACHN > 10 µM | CCRF-CEM > 10 µM | COLO 205 > 10 µM | HCT-116 > 10 µM | HOP-92 > 10 µM | IGROV-1 > 10 µM | KM12 > 10 µM | LOX IMVI > 10 µM | MOLT-4 > 10 µM | NCI-H23 > 10 µM | NCI-H460 > 10 µM | PC-3 > 10 µM | RXF 393 > 10 µM | SF-539 > 10 µM | SNB-75 1.48 µM | SW-620 > 10 µM | TK-10 > 10 µM | U-251 > 10 µM | UACC-257 > 10 µM
